Measurements as given in patent publication US6809101B2, “Compounds having anti-hepatitis C virus effect” (priority 2000, dated 2004).
Where two headings read alike, the source gives them in different places.

How the values were obtained:
[1] = biological target: HCV RNA-dependent RNA polymerase (UniProt P27958); assay: Inhibitory activity against HCV RNA-dependent RNA polymerase (Experiment Example 1); type: biochemical, hepatitis C virus (HCV); settings: Experimental example 1, poly(A) template, oligo(U)12 primer, 3H-UTP substrate, enzyme reaction 25° C. for 30 min
Description: Inhibitory Activity Against HCV RNA-Dependent RNA Polymerase
(1) Preparation of Hepatitis C Virus (HCV) RNA-Dependent RNA Polymerase
It was collected several cDNA clones of HCV RNA-dependent RNA polymerase from plasma of people infected with HCV, RNA-dependent RNA polymerase was expressed by using insect cell or E. coli from these clones. RNA-dependent RNA polymerase in cell extract was purified by anion-exchange chromatography, heparin-affinity chromatography, poly U-affinity chromatography, cation-exchange chromatography, gel filtration chromatography, and the like. The preparation was done at about 4° C. under low temperature condition, as solution dissolving enzyme was used Tris buffer (pH 7.5) containing ethylenediamine tetraacetic acid (1 mM), dithiothreitol (10 mM), and glycerol (20%). The purified enzyme was kept at 4° C. or −20° C. until it was used for assay.
(2) Method of HCV RNA-Dependent RNA Polymerase Assay
(1) In polypropylene vessel was added buffer I*^1)(10.5 μL) containing Tris-HCl (100 mM, pH 7.5), magnesium chloride (25 mM), dithiothreitol (5 mM), potassium chloride (125 mM), ethylenediamine tetraacetic acid (5 mM), and then were added poly(A)*^2) aqueous solution (100 μg/mL, 10.5 μL), oligo(U)12*^3) aqueous solution (10 μg/mL, 10.5 μL), and water (8 μL), and the mixture was mixed slowly.
*1) All of water used as experimental material in enzyme reaction were carried out inactivation treatment of Rnase with diethylpyrocarbonate. The inactivation treatment with diethylpyrocarbonate was carried out as follows, 1) diethylpyrocarbonate (0.1 g) was dissolved in de-ionized water (100 mL), 2) the solution was stood at 37° C. for 24 h, 3) kept in autoclave at 120° C. for 30 min.
*2) Poly(A) is single strand polynucleotide composed with only adenylic acid. It was used as template.
*3) Oligo(U)12 is single strand oligonucleotide composed with only 12 element of uridylic acid. It was used as primer.
(2) Next, to the mixture was added a solution (10.5 μL) of RNA-dependent RNA polymerase, and preincubation was carried out at 25° C. for 60 min.
(3) A solution (50 μL) preincubated described in (2) was added into 96-wells microtiter plate divided test compound (5.26 μL per well) dissolved with dimethylsulfoxide or water.
*4) UTP is uridine triphosphate. It was used as substrate.
(5) When the enzyme reaction was passed for 30 min, to the mixture was added a aqueous solution (50 mM, 50 μL) of ethylenediamine tetraacetic acid disodium and the enzyme reaction was stopped.
(6) Next, after all volume of sample of (5) was transferred on filter introduced diethylaminoethyl group (henceforth shortening as DEAE-filter mat) by using cell harvester, was carried the washing twice with sodium phosphate buffer (0.25 M, pH 7.0) for 10 sec and the washing once with deionized water for 10 sec.
(7) After the washing, DEAE-filter mat was dried at 95° C. for 15 min and sealed together with liquid scintillator (10 mL) into sample bag.
(8) Radioactivity was measured by using scintillation counter.
(9) The percentage of inhibition was calculated by replacing the measured value of radioactivity (unit; ccpm) into the following expression.
The percentage of inhibition=100−(the measured value in presence of test compound−the measured value in absence of enzyme)÷(the measured value in absence of test compound−the measured value in absence of enzyme)×100.
(10) The concentration of test compound inhibiting 50% (IC50) was obtained from the percentage of inhibition calculated in (9) and the used concentration of test compound inhibiting.
In case of the percentage of inhibition is A % when α μg/mL of the compound is used and the percentage of inhibition is B % when β μg/ml of the compound is used, IC50 was obtained from the following expression. Provided that it is theorized as A≧50>B. […]

[2] = biological target: T1, RNA-dependent RNA polymerase (RdRp) of bovine virus diarrhea virus (BVDV) (Bovine viral diarrhea virus, UniProt P19711); assay: Inhibitory activity against BVDV RNA-dependent RNA polymerase (Experiment Example 2); type: biochemical; settings: Experimental example 2; same way as experiment example 1
T1 construct: RNA-dependent RNA polymerase (RdRp) of bovine virus diarrhea virus (BVDV)
Description: Inhibitory Activity Against BVDV RNA-Dependent RNA Polymerase
Inhibitory activity against RNA-dependent RNA polymerase (RdRp) of bovine virus diarrhea virus (BVDV) was experimented too in the same way in experiment example 1.

[3] = read-out: IC50 for HCV RdRp (converted)

T1 sequence (P19711 3270-3988): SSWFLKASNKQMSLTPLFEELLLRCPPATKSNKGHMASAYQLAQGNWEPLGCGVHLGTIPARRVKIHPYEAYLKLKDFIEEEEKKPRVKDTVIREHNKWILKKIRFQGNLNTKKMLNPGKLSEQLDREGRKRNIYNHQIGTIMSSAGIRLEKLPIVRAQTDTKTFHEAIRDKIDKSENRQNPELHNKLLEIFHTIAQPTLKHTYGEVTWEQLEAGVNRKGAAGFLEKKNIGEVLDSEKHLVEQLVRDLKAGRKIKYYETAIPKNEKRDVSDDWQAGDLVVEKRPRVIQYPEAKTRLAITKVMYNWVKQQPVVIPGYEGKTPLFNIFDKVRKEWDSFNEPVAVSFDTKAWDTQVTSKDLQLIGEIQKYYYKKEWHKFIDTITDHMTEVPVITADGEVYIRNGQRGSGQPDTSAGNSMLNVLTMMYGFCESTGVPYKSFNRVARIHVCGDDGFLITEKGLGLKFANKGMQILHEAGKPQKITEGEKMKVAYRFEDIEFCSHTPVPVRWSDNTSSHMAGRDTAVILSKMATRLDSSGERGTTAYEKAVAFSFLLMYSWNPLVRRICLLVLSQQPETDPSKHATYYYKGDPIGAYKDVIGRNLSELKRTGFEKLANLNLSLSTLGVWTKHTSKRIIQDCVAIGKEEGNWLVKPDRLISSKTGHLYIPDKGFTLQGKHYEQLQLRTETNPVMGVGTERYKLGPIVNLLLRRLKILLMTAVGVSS

Row | Compound | IC50 ([1]; read-out: IC50 for HCV RdRp) | IC50 [2] | melting point | IC50 [1, 3]
1 | Cc1cnc(/C(O)=C2\SC(=S)NC2=O)o1 [Compound I-1, 5-[1-Hydroxy-1-(5-methyloxazol-2-yl)]methylene-2-thioxothiazolidin-4-one] | 1.03 µM | 10.3 µM | 243 to 245 °C (dec.) | 
2 | O=C1NC(=S)S/C1=C(/O)c1ccco1 [Compound I-2, 5-[1-(Furan-2-yl)-1-hydroxy]methylene-2-thioxothiazolidin-4-one] |  | 79.2 µM | 230 to 235 °C (dec.) | 3.96 µM
3 | Cc1ccc(C(O)=C2SC(=S)NC2=O)o1 [Compound I-22, 5-[1-Hydroxy-1-(5-methylfuran-2-yl)]methylene-2-thioxothiazolidin-4-one] |  | 153 µM | 195 to 198 °C (dec.) | 20.3 µM
4 | Cc1cnoc1C(O)=C1SC(=S)NC1=O [Compound I-27, 5-[1-Hydroxy-1-(4-methylisoxazol-5-yl)]methylene-2-thioxothiazolidin-4-one] |  | 74.3 µM | 230 to 234 °C (dec.) | 6.6 µM
5 | O=C1NC(=S)SC1=C(O)c1ccon1 [Compound I-29, 5-[1-(Isoxazol-3-yl)1-hydroxy]methylene-2-thioxothiazolidin-4-one] |  | 118 µM | 210 to 215 °C (dec.) | 7.89 µM
6 | O=C1NC(=S)SC1=C(O)c1ccno1 [Compound I-30, 5-[1-(Isoxazol-5-yl)1-hydroxy]methylene-2-thioxothiazolidin-4-one] |  | 140 µM | 195 to 202 °C (dec.) | 29.8 µM
7 | O=C1NC(=S)SC1=C(O)c1nn[nH]n1 [Compound I-32, 5-[1-Hydroxy-1-(2H-tetrazol-5-yl)]methylene-2-thioxothiazolidin-4-one] |  | 161 µM | 188 to 193 °C (dec.) | 14 µM
8 | O=C1NC(=S)SC1=C(O)c1nc[nH]n1 [Compound I-34, 5-[1-Hydroxy-1-(1H-1,2,4-triazol-3-yl)]methylene-2-thioxothiazolidin-4-one] |  | 61.3 µM | 285 to 290 °C (dec.) | 4.03 µM
9 | O=C1NC(=S)SC1=C(O)c1ncccn1 [Compound I-35, 5-[1-Hydroxy-1-(pyrimidin-2-yl)]methylene-2-thioxothiazolidin-4-one] |  | 142 µM | > 250 °C (dec.) | 5.85 µM
10 | O=C1NC(=S)SC1=C(O)c1cnccn1 [Compound I-36, 5-[1-Hydroxy-1-(pyrazin-2-yl)]methylene-2-thioxothiazolidin-4-one] |  | 159 µM | > 250 °C (dec.) | 31.8 µM
11 | O=C1NC(=S)SC1=C(O)c1ccccn1 [Compound I-37, 5-[1-Hydroxy-1-(pyridin-2-yl)]methylene-2-thioxothiazolidin-4-one] |  | 151 µM | > 250 °C (dec.) | 12.6 µM
12 | Cc1nnc(C(O)=C2SC(=S)NC2=O)o1 [Compound I-40, 5-[1-Hydroxy-1-(5-methyl-1,3,4-oxadiazol-2-yl)]methylene-2-thioxothiazolidin-4-one] |  | 21.8 µM | 230 to 237 °C (dec.) | 8.22 µM
